Molecules are shown by their SMILES. pIC50: −log10 of the molar value. Entries after “also recorded” stand apart in the source; their conditions may differ.

One molecule from US20210186982A1, “METHODS AND COMPOSITIONS FOR TREATING MELANOMA” (UNIVERSITE NICE SOPHIA ANTIPOLIS, priority 2017, published 2021) can be followed below.

For data set [1], the system named is A375. Nature of the data set: Real-time imaging growth curve (IncuCyte Zoom). The format is cell-based, human. As to conditions: 2 μM; 3 days; compared with bortezomib and VLX1570. The procedure: FIG. 8. USP14 inhibition induces growth inhibition and cytotoxicity on melanoma cell lines. (A) Growth curve of A375 treated with 2 μM b-AP15, 2 μM VLX1570 or […] bortezomib (BTZ). Data were acquired in triplicate during 3 days using an IncuCyte Zoom. (B) and (C) Cytotoxic effects of USP14 inhibition on melanoma cells. A375 and Me1501 cells were treated with the indicated doses of b-AP15 or VLX1570, and stained with cytotox green reagent (100 nM). Cytotoxicity was monitored in triplicate for 72 h with an IncuCyte imaging system.

The test system of data set [2] is 16 melanoma cell lines. The data set is described as follows: MTS proliferation assay, collection of melanoma cell lines. The format is cell-based. As to conditions: Homo sapiens, range over 16 melanoma cell lines, read-out: IC50 of b-AP15 for 16 melanoma cell lines. The protocol: (§1) Cell proliferation was measured by a MTS conversion assay using the CellTiter 96® Aqueous Non-Radioactive Cell Proliferation kit (Promega, Madison Wis.) according to the manufacturer instructions. Cells were seeded in 96-well plates (5×10^4 cells/well) and treated with different reagents for the indicated times and incubated at 37° C. with MTS reagent. The optical density of each sample at 490 nm was determined with a Multiskan FC plate reader (Thermo Fisher Scientific, Waltham, Mass. USA).
In general terms: Tetrazolium assays rely on reduction of a dye to a coloured formazan, in cell work by metabolically active cells.

Data set [3] relates to 451Lu-R Luc+ cells. Nature of the data set: Melanoma xenograft in nude mice, tumor bioluminescence. The format is in vivo. The following applies: 10 mgkg-1 i.p. every 3 days, vs vehicle. The procedure: (§2) All mouse experiments were carried out in accordance with the Institutional Animal Care and the local ethics committee. For human melanoma xenografts, 5-week-old female athymic (nu/nu) mice (Harlan) were subcutaneously injected with 1×106 451Lu-R BRAF inhibitor resistant melanoma cells engineered to express a luciferase reporter (451Lu-R Luc+ cells) in 100 μl of PBS. After 3 days, mice were injected every 3 days intraperitoneally with vehicle or 10 mgkg-1 b-AP15 in 90/1/9 mix of Labrafil/Tween 80/DMA. At the indicated time, mice were anesthetized and injected intraperitoneally with 50 mgkg-1 D-luciferin (Perkin Elmer) in PBS. Images were acquired using a Photon Imager (Biospace Lab) system and data analysed with the M3Vision software (Biospace Lab). Tumor growth was monitored and quantified using BLI. The total numbers of photons per second per steradian per square centimeter were recorded. For BLI plots, photon flux was calculated for each mouse by using a rectangular region of interest encompassing the thorax of the mouse in a prone position.

Data set [4] concerns the target T1, USP14 (Homo sapiens, UniProt P54578).
T1 construct: endogenous in cells; host or cells: A375 (also 1205Lu, 501Mel, SKMel28, 451Lu) melanoma cells; cell lysates
Nature of the data set: DUB trap assay (HA-Ub-VS probe, anti-USP14 immunoblot). The format is cell-based. The protocol: Cells were harvested, washed with PBS and pellets were dried then freezed (−80° C.) and subsequently lysed in ice-cold buffer containing 50 mM Tris (pH 7.4), 5 mM MgCl2, 250 mM sucrose, 1 mM DTT, 2 mM ATP, and 1 mM PMSF and mild sonication. Lysates were cleared by centrifugation, and 20 μg of protein extracts were incubated for 25 min at 37° C. with 2 μM HA-Ub-VS (Boston Biochem, Cambridge, Mass.). After boiling in reducing sample buffer, labelled cell lysates were subjected to immunoblot analysis as described above using the indicated antibodies.

Data set [5] is described as follows: Body weight during xenograft study. Type of data set: in vivo. The following applies: 10 mgkg-1 i.p. every 3 days; nude mice; course of the study. The protocol:
as §2

Data set [6] deals with 451IuR. The data set is described as follows: MTS conversion assay, melanoma cell proliferation. The format is cell-based, human. The protocol: as §1
Data set [7] relates to 1205Iu. The data set is described as follows: MTS conversion assay, melanoma cell proliferation. The format is cell-based, human. The procedure: as §1
For data set [8], the system named is 501Mel. Nature of the data set: MTS conversion assay, melanoma cell proliferation. The format is cell-based, human. The protocol: as §1
In data set [9] the test system is m229R. Nature of the data set: MTS conversion assay, melanoma cell proliferation. Type of data set: cell-based, human. The protocol: as §1
In data set [10] the test system is A375. Nature of the data set: MTS conversion assay, melanoma cell proliferation. The format is cell-based, human. The protocol:
as §1

Data set [11] deals with 4511u and 4511uR cells. Nature of the data set: Colony formation assay. Type of data set: cell-based, human. The procedure: Alternatively, cell growth was assessed by crystal violet staining on cells seeded in 24-well plates for the indicated time. After treatment, cells were fixed in PFA 3% during 20 min, washed with PBS 3 times and stained with crystal violet 0.4% in ethanol 20% for 30 min.

The nature of data set [12]: Annexin-V-FITC/7-AAD flow cytometry, cell viability. The format is cell-based. The following applies: human, A375 cells; solvent 87%. The procedure:
Cell death was evaluated by flow cytometry following staining with Annexin-V-FITC and 7-AAD (eBiosciences) as previously described 24.
(In general: A flow cytometer gives signals particle by particle.)

In data set [13] the test system is Pt#1 patient cells. Nature of the data set: MTS conversion assay, patient melanoma cell proliferation. The format is cell-based. As to conditions: Homo sapiens; Patient cells Pt#1; MET; BRAF*; resistance none; 48 h MTS; read-out: b-AP15 IC50. The protocol: as §1
Data set [14] deals with 12051u and A375 cells. The data set is described as follows: Immunoblot analysis of proliferation and apoptosis proteins. Type of data set: cell-based, human. The procedure: Melanoma cells were harvested as described before 6. Cells were lysed at 4° C. in RIPA buffer (Millipore) supplemented with Pierce™ Protease and Phosphatase Inhibitor Mini Tablets, and briefly sonicated. Cell lysates were cleared at 16,000 xg for 15 min at 4° C. Whole cell lysates were subjected to SDS-PAGE and immunoblot analysis as previously described 6.
(In general: A western blot detects proteins with antibodies after separation by electrophoresis.)

For data set [15], the system named is ER stress response genes. The data set is described as follows: qRT-PCR analysis of ER stress response genes. Type of data set: cell-based, human. As to conditions: 2 μM b-AP15, 6 h and 24 h; 12051u cells. The protocol:
Total RNA was extracted from cell samples using Nucleospin RNAII kit (Macherey-Nagel) and following the manufacturer's instructions. Recovered RNA samples were quantified using NanoDrop spectrophotometer ND1000 (Thermo Fisher Scientific). Reverse transcription was performed on 1 μg of total RNA in a volume of 20 μL using High capacity cDNA Reverse Transcription kit (Applied Biosystems) according to the manufacturer's instructions. Quantitative PCR was performed on 20 ng cDNA samples, in sealed 96-well microtiter plates using the Platinum® SYBR Green qPCR Supermix-UDG w/ROX (Life Technologies) with the StepOnePlus System (Applied Biosystems). Relative mRNA levels were determined using the 2ΔΔCT method and ACTB and PPIA as housekeeping genes. Values are the mean of duplicates and are representative of two independent experiments.

Where [16] appears, read: 24 h, increasing doses 0.1 to 10 μM.
[17] abbreviates: 24 h, increasing doses 0.01 to 10 μM.

T1 sequence (P54578 whole entry): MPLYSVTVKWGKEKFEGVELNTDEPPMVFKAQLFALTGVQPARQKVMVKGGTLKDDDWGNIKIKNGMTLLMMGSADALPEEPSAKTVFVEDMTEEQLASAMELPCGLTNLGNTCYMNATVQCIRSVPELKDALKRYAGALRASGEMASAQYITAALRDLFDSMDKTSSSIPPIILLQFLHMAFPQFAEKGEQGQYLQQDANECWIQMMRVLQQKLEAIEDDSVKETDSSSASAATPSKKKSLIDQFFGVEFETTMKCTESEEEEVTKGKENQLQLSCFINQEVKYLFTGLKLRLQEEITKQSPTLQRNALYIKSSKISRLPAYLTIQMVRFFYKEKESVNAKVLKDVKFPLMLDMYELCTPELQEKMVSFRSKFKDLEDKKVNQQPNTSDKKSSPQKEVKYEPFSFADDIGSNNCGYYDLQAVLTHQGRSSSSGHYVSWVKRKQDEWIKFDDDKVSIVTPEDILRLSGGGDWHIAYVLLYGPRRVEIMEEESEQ

What is called pIC50 is the negative decadic logarithm of the IC50, by convention in mol/L. The viability is the share of living cells, or the viability signal relative to a control. Regarding `Cc1cc(C(=O)CN2CCCC2)c(C)n1-c1ccc(F)cc1` [b-AP15], the “effect on cell proliferation, real-time imaging” value in [1] is recorded as “rapid”. Besides, the pIC50 was 5.70 to 6.40 in [2]; 5.89 in data set [6] (Homo sapiens, 451IuR, MET, BRAFV600E/p53*/?, resistance dabrafenib, 48 h MTS, read-out: b-AP15 IC50); 6.40 in [7] (Homo sapiens, 1205Iu, MET, BRAFV600E/PTEN*, resistance none, 48 h MTS, read-out: b-AP15 IC50); 6.30 in data set [8] (Homo sapiens, 501Mel, MET, BRAFV600E, resistance none, 48 h MTS, read-out: b-AP15 IC50); 5.96 in data set [9] (Homo sapiens, m229R, MET, BRAFV600E/PTEN*/RTK*, resistance vemurafenib, 48 h MTS, read-out: b-AP15 IC50); 6.22 in data set [10] (Homo sapiens, A-375, A375, MET, BRAFV600E/CDKN2A*, resistance none, 48 h MTS, read-out: b-AP15 IC50). In addition, in [13], the negative-log IC50 (pIC50) was 5.47. Besides, in data set [3], the “melanoma burden, bioluminescence analysis of tumor growth” value is reported as “marked decrease in melanoma burden”. Further, the “USP14 activity in 12051u, 501Mel, SKMe128 and 4511u cells” value in [4] (2 μM) is recorded as “efficiently blocked the activity of USP14”. Besides, in [4] (A375 melanoma cells), the “USP14 activity (USP14-Ub-HA) in A375 cells” value is “efficiently blocked the activity of USP14 in a dose-dependent manner”. Moreover, the “tolerability / weight loss” value in data set [5] was “no weight loss was observed”. Also, in data set [6] (setting [16]), the “cell proliferation of BRAFi-resistant 4511uR cells (MTS)” value was “potently decreased cell proliferation”. The “cell proliferation of 1205Lu cells (MTS)” value in [7] (setting [17]) is “impaired cell proliferation in a dose-dependent manner”. Besides, the “cell proliferation of 501me1 cells (MTS)” value in [8] (setting [17]) was “impaired cell proliferation in a dose-dependent manner”. In addition, the “cell proliferation of BRAFi-resistant m229R cells (MTS)” value in data set [9] (setting [16]) is “potently decreased cell proliferation”. Further, in data set [10] (24 h, increasing doses up to 10 μM), the “cell proliferation of A375 cells (MTS)” value was “drastically decreased cell proliferation; also recorded: impaired cell proliferation in a dose-dependent manner”. Also, in data set [11], the melanoma colony formation entry was “suppressed melanoma colony formation”. The viability in data set [12] is 52%. The “levels of p53 and of the cell cycle inhibitor p21” value in data set [14] is given as “increased”. Also, the “levels of phosphorylated Rb proteins” value in data set [14] is “reducing”. Besides, in data set [15], the “ER stress response (CHOP, BIP/GRP78, GADD34, ATF4, spliced XBP1)” value is on record as “triggered a potent ER stress response”.
